This note sets out measurements from PMC7066245 (Scientific Reports, 2020).

Read-outs that look alike come from different tables or passages of the source.

Test [1] concerns HL60 promyelocytic leukemia cells. The experiment in a line: cells. The class given is cell-based, human. The settings on record: read-out: IC50 HL60.
The test system of test [2] is THP1 cells. The class given is cell-based, human. The arrangement: concentration or dose not given beside the values.
For test [3], the system named is RPMI8226 myeloma cancer cells. The experiment in a line: cells. The following applies: read-out: IC50 RPMI8226. The class given is cell-based, human.
For test [4], the system named is THP1 acute monocytic leukemia cells. The experiment in a line: cells. The class given is cell-based, human. The settings on record: read-out: IC50 THP1.
Test [5] concerns normal peripheral blood-derived mononuclear cells (PBMC). The experiment in a line: cells. The class given is cell-based. The settings on record: read-out: IC50 PBMC.
Test [6] concerns caspase-3/-7 in THP1 cells. Type of test: cell-based, human.
Test [7] has as its system caspase-3/-7 in HL60 cells. Type of test: cell-based, human.
Test [8] has as its system intracellular calcium (Ca2+) in THP1 cells. The experiment in a line: intracellular calcium measurement (Fluo-4-NW), THP1. The class given is cell-based, human. The following applies: THP1, IC50 dose, 4 h. The protocol: (§1) Intracellular calcium level was determined using the fluorescent probe Fluo-4NW according to the protocol described in our previous article. After entering the cell, Fluo-4NW is converted by cytosolic hydrolases to the active form, having the possibility of binding of calcium ions. As a result of joining of calcium ions, the probe emits fluorescence (λem = 538 nm) after excitation with light of wavelength 485 nm.
(§2) Cells were cultured and treated with investigated compounds on Petri dishes. Next, the cells were plated in 96-well black fluorimetric plates (2 × 10^4 cells/well). The growth medium was removed and the cells were washed with PBS in order to eliminate sources of baseline fluorescence. Finally a dye loading solution (Fluo-4-NW dye, 4-[(Dipropylamino)sulfonyl] benzoic acid (Probenecid) - used to inhibit extrusion of the indicator out of the cell by organic anion transporters, Hanks’ balanced salt solution (HBSS), 20 mM N-(2- hydroxyethyl)piperazine-N’-(2-ethanesulfonic acid) buffer solution (HEPES)) was added in a volume of 100 μl per well and incubated for 30 min in the total darkness at 37 °C, and then for next 30 min. at room temperature. The measurement was done on Fluoroskan Ascent FL microplate reader (Labsystems, Sweden) using 494 nm excitation and 516 nm emission wavelengths.
For orientation: Calcium assays in cells follow changes in intracellular calcium, usually with a dye or a luminescent sensor.

Test [9] concerns THP1 cells. The experiment in a line: annexin V/propidium iodide apoptosis assay, THP1. Type of test: cell-based, human. The following applies: THP1, 48 h, 0.3 μM, annexin V/PI. An excerpt: (§3) Double staining of cells with Annexin V and propidium iodide (PI) was used according to the protocol described in our previous article. This method is a useful tool for distinguishing viable cells (unstained with either fluorochrome) from early apoptotic cells (stained only with Annexin V), late apoptotic (stained with Annexin V and propidium iodide) and necrotic (dead) cells (stained only with PI).
(§4) Briefly, 5 × 10^5 control and drug treated cells were washed with cold PBS and resuspended in 500 μl binding buffer (delivered from producer) that contained 5 μl of Annexin V fluorescein isothiocyanate (FITC), 5 μl of PI and stained for 15 minutes in room temperature. Finally, at least 10^4 cells were analyzed for FITC and PI fluorescence (Ex ~488 nm; Em ~530 nm) using a flow cytometer (LSR II, Becton Dickinson). The cells stained with the annexin V/propidium iodide mixture were then visualized using fluorescence microscopy (Olympus IX70, Japan), magnification × 200.

Test [10] relates to RPMI8226 cells. Type of test: cell-based, human.
A further test deals with HL60 cells. The experiment in a line: annexin V/propidium iodide apoptosis assay, HL60. Type of test: cell-based, human. The following applies: HL60, 48 h, 0.7 μM, annexin V/PI.
Source text: as §3, §4

The next test deals with caspase-9 in THP1 cells. The class given is cell-based, human.
Test [11] deals with RPMI8226 cells. The experiment in a line: annexin V/propidium iodide apoptosis assay, RPMI8226. Type of test: cell-based, human. The settings on record: RPMI8226, 48 h, 3 µM, annexin V/PI.
Source text: as §3, §4

Test [12] has as its system caspase-3/-7 in RPMI8226 cells. The class given is cell-based, human.
The subject of test [13] is intracellular calcium (Ca2+) in HL60 cells. The experiment in a line: intracellular calcium measurement (Fluo-4-NW), HL60. The settings on record: HL60, IC50 dose. The class given is cell-based, human. The protocol: as §1, §2

Broadly, the IC50 is the midpoint of a concentration-inhibition curve. Take `COC(=O)C(Cc1ccc(N(CCCl)CCCl)cc1)N=CN1CCOCC1` (centres unmarked) [EM-MOR-MEL]: the IC50 in test [1] (Homo sapiens, HL-60, 48 h) is 0.49 ± 0.098 µM; in test [3] (Homo sapiens, RPMI-8226, 48 h), 3.6 µM; in [4] (Homo sapiens, THP-1, 48 h), 0.07 ± 0.004 µM; in test [5] (PBMC, 48 h), 6.41 ± 0.85 µM. In addition, the “DNA damage (tail DNA), THP1” value with THP1 cells [2] is listed as ~ 13%.
Regarding `CCOC(=O)C(Cc1ccc(N(CCCl)CCCl)cc1)N=CN1CCOCC1` (centres unmarked) [EE-MOR-MEL], the IC50 amounted to 0.32 µM in test [1] (Homo sapiens, HL-60, 48 h); 3.13 µM in test [3] (Homo sapiens, RPMI-8226, 48 h); 0.04 µM in test [4] (Homo sapiens, THP-1, 48 h). In addition, the “DNA damage (tail DNA), THP1” value in the test on THP1 cells [2] is ~ 13%. The “Caspase 3 activity THP1, 24 h” value in test [6] amounted to 981.93 ± 51.79%. Besides, in test [7], the “Caspase 3 activity HL-60, 24 h” value is 1127.68 ± 39.24%. Moreover, the “fold increase of intracellular calcium ions, THP1” value in test [8] was “approx. 2.8 fold”.
Take `CCCN(C=NC(Cc1ccc(N(CCCl)CCCl)cc1)C(=O)OC)CCC` (centres unmarked) [EM-DIPR-MEL]: the IC50 is 0.85 µM in test [1] (Homo sapiens, HL-60, 48 h); 5.94 ± 0.65 µM in [3] (Homo sapiens, RPMI-8226, 48 h); 4.85 µM in test [3]; 0.41 µM in [4] (Homo sapiens, THP-1, 48 h). In addition, the “DNA damage (tail DNA), THP1” value with THP1 cells [2] is ~ 7%. Moreover, the “late apoptotic cells, THP1” value with THP1 cells [9] is on record as “comparable to that of the unmodified drug”. In addition, in the test on RPMI8226 cells [10], the “DNA damage (tail DNA), RPMI8226” value is reported as “comparable to that of melphalan”.
In the case of `N[C@@H](Cc1ccc(N(CCCl)CCCl)cc1)C(=O)O` [MEL, melphalan, reference compound], the IC50 in [1] (Homo sapiens, HL-60, 48 h) turned out to be 3.78 µM; in test [3] (Homo sapiens, RPMI-8226, 48 h), 8.9 µM; in test [4] (Homo sapiens, THP-1, 48 h) it was 6.26 µM. The “Caspase 3 activity THP1, 24 h” value in test [6] is 429.08 ± 48.10%. Besides, in the test on THP1 cells [9], the “late apoptotic cells, THP1” value is on record as about 17%. Also, the “late apoptotic cells, HL60” value in the test with HL60 cells is listed as about 35%. In the test with caspase-9 in THP1 cells, the “Caspase 9 activity THP1, 24 h” value is 316.5 ± 17.31%. Further, the “Caspase 3 activity HL-60, 24 h” value in [7] is 736.92 ± 105.48%. Further, the “late apoptotic cells, RPMI8226” value in the test on RPMI8226 cells [11] is “approximately 25%”. Moreover, in test [12], the “Caspase 3 activity RPMI8226, 24 h” value is given as 463.75 ± 64.5%. In addition, in [8] (control = 100%), the “level of intracellular calcium, THP1” value came out at 131.27 ± 10.08%.
`CCCN(C=NC(Cc1ccc(N(CCCl)CCCl)cc1)C(=O)O)CCC` (centres unmarked) [DIPR-MEL]: the IC50 was over 30 µM in [1] (Homo sapiens, HL-60, 48 h); over 30 µM in test [3] (Homo sapiens, RPMI-8226, 48 h); over 30 µM in test [4] (Homo sapiens, THP-1, 48 h).
In the case of `CCCN(C=NC(Cc1ccc(N(CCCl)CCCl)cc1)C(=O)OCC)CCC` (centres unmarked) [EE-DIPR-MEL], the IC50 in test [1] (Homo sapiens, HL-60, 48 h) turned out to be 1.05 µM; in [3] (Homo sapiens, RPMI-8226, 48 h), 4.85 ± 0.195 µM; in test [3], 5.94 µM; in test [4] (Homo sapiens, THP-1, 48 h) it was 0.69 µM. For the same compound, in the test with THP1 cells [2], the “DNA damage (tail DNA), THP1” value is ~ 7%. For the same compound, the “late apoptotic cells, THP1” value in the test on THP1 cells [9] is on record as “comparable to that of the unmodified drug”. Moreover, the “DNA damage (tail DNA), RPMI8226” value in the test on RPMI8226 cells [10] was “comparable to that of melphalan”.
Turning to `O=C(O)C(Cc1ccc(N(CCCl)CCCl)cc1)N=CN1CCOCC1` (centres unmarked) [MOR-MEL], the IC50 was over 30 µM in test [1] (Homo sapiens, HL-60, 48 h); over 30 µM in test [3] (Homo sapiens, RPMI-8226, 48 h); over 30 µM in [4] (Homo sapiens, THP-1, 48 h).
Consider `CCOC(=O)C(N)Cc1ccc(N(CCCl)CCCl)cc1` (centres unmarked) [EE-MEL], for which the IC50 in [1] was 0.7 µM; in test [3], 1.17 µM; in test [4] it was 0.35 µM; in [5] it was 2.2 ± 0.25 µM. Also, the “DNA damage (tail DNA), THP1” value in the test with THP1 cells [2] is ~ 15%. Further, in [6], the “Caspase 3 activity THP1, 24 h” value was 788.85 ± 83.40%. Moreover, the “Caspase 3 activity HL-60, 24 h” value in test [7] came to 1225.64 ± 155.22%. Moreover, the “DNA damage (tail DNA), RPMI8226” value in the test on RPMI8226 cells [10] is reported as ~ 38%. Moreover, in test [12], the “Caspase 3 activity RPMI8226, 24 h” value is 656.19 ± 221.7%. Besides, in test [13], the “fold increase of intracellular calcium, HL60, 24 h” value is listed as “approx. 2 fold”.
